# Results taken from patent publication US6627732B1, “Glutathione derivatives and their dosage forms” (Teijin Limited, priority 1998, dated 2003).
# Columns and labels:
# [1] = Stability in rabbit plasma; conditions: heparinized plasma, 250-323 μg/ml
# Protocol: (§1) (1) Bovine serum albumin (hereinafter referred to as BSA), Dulbecco's phosphate buffered saline (hereinafter referred to as D-PBS), swine liver esterase, and rabbit liver esterase were purchased from Sigma, 6-week old male SD rats were purchased from Nippon SLC, and 12-week old or older male Japanese white rabbits were purchased from Ichikawaya. On the day of the incubation experiment described below, blood was drawn from the animals in the presence of heparin, and plasma was separated therefrom for use. Human plasma was obtained from normal healthy males after obtaining their consent.
# (§2) (2) The glutathione derivatives described in the Examples and Comparative Examples of the present invention were incubated for a fixed time in an enzyme solution having the following composition. Acetonitrile was added to the reaction mixture to inactivate the enzyme thereby to stop the reaction. The concentration of the glutathione derivatives in the deproteinized supernatant was measured by HPLC. For each time point of the esterase enzyme experiment, the mean values from two measurement or more were determined, and for the rats and rabbits the mean values of plasma samples from three individuals were determined. For some of the experiment data, changes with time of percentages relative to initial concentration of the glutathione derivative are shown in FIGS. 2 to 4.
# Rat, rabbit, and human plasma
# Heparinized plasma: 30 to 40 parts
# 10 mg-glutathione derivative/ml-ethanol: one part (the final concentration in the reaction mixture is 250-323 μg/ml)
# [2] = test system: rat models of suppressed hematopoietic function by 5-FU administration; assay: Ratio of segmented neutrophils in rat models of suppressed hematopoietic function by 5-FU (Example 27); format: in vivo; conditions: 5-FU rats
# Protocol: (1) The animals used are the same as in Example 26. The keeping condition was a temperature of 23±2° C. and a humidity of 55±15%.
# (2) The creation of the 5-FU administration model, the administration of test substances, and the blood collection schedule were carried out in a similar manner to Example 26. Hematological tests were carried out using the Toa multi-channel automatic cell counter K-4500 or Toa Sysmex CC-180A automatic cell counter, differential counts of white blood cells were carried out by May-Giemsa stain followed by microscopic examination, reticulocytes were counted by the Brecher method.
# (3) Using the same schedule as in Example 26, the negative control group that only received the fat emulsion after 5-FU administration, the group that received the glutathione derivative of Example 4 at 30 mg/kg-body weight/day as a test substance together with the fat emulsion, the group that similarly received the glutathione derivative of Example 1 at 10 or 30 mg/kg-body weight/day, and the group that received the glutathione derivative of Example 7 at 30 or 60 mg/kg-body weight/day were studied.
# [3] = Pharmacokinetics after intravenous administration to rabbits, 2-compartment model (Example 25); format: in vivo, rabbit; conditions: iv auricular vein 2 ml/kg, fat emulsion (Comparative Ex. 1: HPCD/glucose solution)
# Text: For the glutathione derivative of the present invention having a long-chain ester having 12 carbons or more and the glutathione derivatives of the conventional technology of Comparative Examples 1 and 2, kinetics in the blood were compared in rabbits that are a species having allow esterase activity in the blood.
# (1) Male Japanese white rabbits, 12-week old or older, were purchased from Ichikawaya, and those rabbits that became 15-week old or older and whose body weight reached about 3 kg were used for the experiment. During the period up to the experiment, the animals were allowed free access to the animal feed and drinking water and were kept at a temperature of 24±2° C. and a humidity of 55±5%.
# (2) The glutathione derivative having a long-chain ester of 12 carbons or more and the glutathione derivative of Comparative Example 2 were prepared at 20-200 mg/ml in a mixture of ethanol or ethanol:benzyl alcohol, which was mixed with the fat emulsion just prior to use, and was filtered with a 1.2 μm filter to obtain a liquid for intravenous administration. On the other hand, the glutathione derivative of Comparative Example 1 was dissolved in an aqueous solution of 6%-hydroxypropyl-β-cyclodextrin/5%-glucose at 15 mg/ml to obtain an administration liquid.
# (3) The administration liquid of the glutathione derivative obtained in (2) at a dose of 2 ml/kg was rapidly infused into the left auricular vein of the rabbits under no anesthesia and under restraint at a rate of 1 ml/min. Each glutathione derivative was given to three or more rabbits. At 5, 10, 15, 30, 60, 120, and 240 minutes after the completion of the administration, 1 ml of the blood was drawn from the right auricular vein in the presence of heparin, which was immediately cooled on ice. Plasma was obtained by centrifuging the blood, 1-2 volume parts of acetonitrile was added to deproteinize the supernatant, which was filtered by a 0.5 μm filter. The supernatant of the filtrate was quantitated by HPLC.
# [4] = test system: rabbit liver esterase; assay: Decomposition of glutathione derivatives by rabbit liver esterase (physiological stability); format: in vitro ADME; conditions: BSA/D-PBS pH 7.4, 196-244 μg/ml
# Protocol: as §1, §2
# (§3) Swine liver esterase and rabbit liver esterase experiment
# (§4) 30 mg-BSA/ml-D-PBS (pH 7.4): 36 to 45 parts
# (§5) Swine or rabbit liver esterase/D-PBS: 4-5 parts
# (§6) 10 mg-glutathione derivative/ml-ethanol: one part (the final concentration in the reaction mixture is 196-244 μg/ml)
# [5] = test system: swine liver esterase; assay: Decomposition of glutathione derivatives by swine liver esterase (physiological stability); format: in vitro ADME; conditions: BSA/D-PBS pH 7.4, 196-244 μg/ml
# Protocol: as §1, §2, §3, §4, §5, §6
# [6] = 30 mg/kg-body weight/day with fat emulsion
SMILES,Half life in rabbit plasma [1] [h],Recovery of segmented neutrophil counts relative to the negative control ([2]; 10 mg/kg-body weight/day with fat emulsion),"Recovery of segmented neutrophil counts relative to the negative control [2, 6]",Clearance per body weight [3] [mL/min/kg],Distribution volume per body weight of the central compartment [3] [L/kg],Decomposition rate constant by rabbit liver esterase [4],Decomposition rate constant by swine liver esterase [5],"Recovery of neutrophil counts relative to the negative control ([2]; 60 mg/kg-body weight/day with fat emulsion, days 11 and 12)"
"CCCCCCCCCCCCCCCCCCOC(=O)[C@@H](N)CCC(=O)N[C@@H](CSCc1ccccc1)C(=O)N[C@@H](C(=O)OCC)c1ccccc1.Cl [Example 1, Glu(Cys(Bzl)-D-Phg-OEt)-O(Octadecyl)hydrochloride]",408.57,tendency of promoting the recovery of segmented neutrophil counts,tendency of promoting the recovery of segmented neutrophil counts,0.5,0.06,0.300 10^−4/unit/min,0.0901 10^−4/unit/min,
"CCCCCCCCCCCCOC(=O)[C@@H](N)CCC(=O)N[C@@H](CSCc1ccccc1)C(=O)N[C@@H](C(=O)OCC)c1ccccc1.Cl [Example 7, Glu(Cys(Bzl)-D-Phg-OEt)-O(Dodecyl)hydrochloride]",5.38,,no changes relative to the negative control,47.5,0.47,21.1 10^−4/unit/min,15.2 10^−4/unit/min,tendency of promoting the recovery of neutrophil counts
